From publication PMC12040169 (PLOS Biology, 2025) come the findings set out here.

A short description of the data set: in vitro. The settings on record: human, hela cells.

Consider `Cc1noc(C)c1Cn1cc(NS(=O)(=O)c2cccs2)cn1` [CBK044394], for which the viability at 28.5 h, 10 µM (% viability) came to 97.9%.
The same measure, in the same setting: the figure for `COc1ccc2c(c1)C1(CC(=O)N(C)C1=O)C(=O)N2CCCC(=O)O` (stereo not shown) [CBK076109] is 77.3%; for `CCOC(=O)Nc1ccc2c(c1)N(C(=O)CN1CCOCC1)c1ccccc1CC2` [CBK261286C] it is 101%.
For `N#Cc1cccc(S(=O)(=O)Nc2cccc3[nH]ccc23)c1` [CBK155771], the viability at 28.5 h, 10 µM (% viability) is 60.6%.
The same measure, in the same setting: the figure for `O=C1CC(N(O)c2ccccc2)C(=O)N1c1ccc(F)cc1` (stereo not shown) [CBK288419] is 104%.
As to `OCCN(Cc1ccccc1)Cc1ccc(-c2ccccc2)cc1` [CBK261883], under “% viability”, the viability at 28.5 h, 10 µM came out at 102%.
The same measure, in the same setting: the figure for `CCOC(=O)c1csc(C2CCCN2C(=O)c2ccoc2C)n1` (stereo not shown) [CBK304080] is 109%; for `C=CCNC(=O)C1CC2CCC1(C)C[C@@]21NC(=O)c2ccccc2N1` (stereo partly shown) [CBK284442] it is 86.6%.
In the case of `O=C(Nc1ccc(Cl)cc1)c1cccc(-n2cnnn2)c1` [CBK287791], the viability at 28.5 h, 10 µM was 84.2%.
For the molecule `COc1ccc(Oc2cncc(OC3CCN(CC(=O)Nc4c(C)cccc4C)C3)n2)cc1OC` (stereo not shown) [CBK084403], the viability at 28.5 h, 10 µM (% viability) is 101%.
On to `O=C(OCn1nnc2ccccc2c1=O)c1cccc([N+](=O)[O-])c1` [CBK264887], for which the viability at 28.5 h, 10 µM (% viability) is 104%.
Still for that read-out and setting: the value for `O=C1CCC(=O)N1CCN1CC(O)CC1c1cc(F)ccc1F` (stereo not shown) [CBK306390] was 92.8%; that for `c1ccc2sc(-c3cc(N4CCN(CCN5CCCC5)CC4)ncn3)cc2c1` [CBK091172] was 89.3%.
The same measure, in the same setting: the value for `COCc1cn([C@H]2CO[C@H]3[C@@H]2OC[C@H]3OC)nn1` [CBK289490] was 89.9%; that for `NC(=S)NNC(=O)Nc1ccccc1` [CBK261595] was 96.6%.
On the same count and under the same terms, the figure for `Cc1nc2ccc(NC(=O)N3CCC(c4ccccc4)C3)cc2s1` (stereo not shown) [CBK266512] is 98.8%.
As to `O=S1(=O)CC(NCc2ccccc2)C(Nc2ccccc2)C1` (stereo not shown) [CBK265797], the viability at 28.5 h, 10 µM (% viability) worked out at 91.7%.
Regarding `O=C(O)CN(CC(=O)Nc1ccc(Cl)cc1)Cc1ccccc1` [CBK286585], the viability at 28.5 h, 10 µM (% viability) came to 85.5%.
The same measure, in the same setting: the figure for `O=C(O)c1cccc(NS(=O)(=O)c2ccc(F)cc2F)c1` [CBK155084] is 95.4%.
For the molecule `Nc1ncc(-c2cccc(C(F)(F)F)c2)c2cccnc12` [CBK067590], the viability at 28.5 h, 10 µM (% viability) was found to be 89.2%.
On to `Cc1c(C(=O)N2CCC(CN)C2)nnn1-c1ccc2ncccc2c1` (stereo not shown) [CBK304734], for which the viability at 28.5 h, 10 µM (% viability) came to 101%.
With `C/C(=N/OCC(=O)Nc1oc(-c2ccccc2)c(-c2ccccc2)c1C#N)c1cccs1` [CBK262932], the viability at 28.5 h, 10 µM (% viability) came out at 89.6%.
For the molecule `CCNC(=O)NC[C@H]1C[C@@H]2CCN1C[C@@H]2c1cc(-c2ccccc2OC)nn1C` [CBK289105], the viability at 28.5 h, 10 µM (% viability) is 118%.
As to `COc1ccc(CC(=O)Nc2cccc(-c3ccc4c(c3)COC3(CCNCC3)O4)c2)c(OC)c1` [CBK115706], the viability at 28.5 h, 10 µM (% viability, bulk resorufin, single well) was found to be 89.6%.
Take `O=C(NCc1cccc2ccccc12)N1CCN(Cc2ccccc2)CC1` [CBK155628]: where the note is “% viability”, the viability at 28.5 h, 10 µM was determined as 92.2%.
Same read-out and setting: the figure for `CCN(Cc1ccncc1)C(=O)NCc1ccc(F)cc1` [CBK155146] is 96.4%.
Still for that read-out and setting: the value for `CN1[C@@H]2CC[C@H]1C[C@@H](N1Cc3cc4ccccc4n3C1=O)C2` [CBK017722] was 124%.
Consider `O=C(CN1CCCC1=O)NC(Cc1cccs1)c1nccs1` (stereo not shown) [CBK282177], for which the viability at 28.5 h, 10 µM (% viability) was determined as 104%.
The same measure, in the same setting: the value for `O=[N+]([O-])c1c(N2CCN(CCO)CC2)ccc2nonc12` [CBK264397] was 96%; that for `COc1ccc(CN2CCN(Cc3ccc4c(c3)OCO4)CC2)c(OC)c1OC` [CBK033874] was 91.4%; that for `NS(=O)(=O)c1ccc(CCNC(=O)COc2ccc(Cl)cc2Cl)cc1` [CBK265694] was 90.2%.
For the molecule `CS(=O)(=O)NCC1(c2ccccc2)CCN(S(=O)(=O)c2c(Cl)cccc2Cl)CC1` [CBK051633], the viability at 28.5 h, 10 µM (% viability) came out at 89.9%.
Consider `CCOc1cc(/C=C2/SC(=S)N(c3cccc(C(F)(F)F)c3)C2=O)ccc1OCC(=O)O` [CBK264965], for which the viability at 28.5 h, 10 µM (% viability) came out at 106%.
Same read-out and setting: the figure for `CCN(Cc1ccccc1)Cc1ccco1` [CBK261884] is 111%; for `O=C(COc1ccc(Cl)cc1Br)N1CCCCCC1` [CBK058661] it is 82.8%.
Consider `Cn1cccc1CNCc1ccccn1` [CBK269818C], for which the viability at 28.5 h, 10 µM (% viability) worked out at 96%.
The same measure, in the same setting: the figure for `O=C1C2CCCN2S(=O)(=O)c2ccccc2N1Cc1ccccc1` (stereo not shown) [CBK284018] is 88.6%; for `CN(C)C(=O)Cn1nc(-c2cc3c(s2)CCCC3)oc1=O` [CBK283905] it is 98%; for `Cc1c(-c2ccc(Cl)cc2Cl)nc2ccccc2c1C(=O)NCCC(c1ccccc1)c1ccccc1` [CBK262634] it is 99.7%.
On the same count and under the same terms, the figure for `Cn1c(=O)c2c(ncn2Cc2noc(-c3ccoc3)n2)n(C)c1=O` [CBK304945] is 86.3%; for `COc1cc(OC)nc(CN2C(=O)C3(CC(=O)N(C)C3=O)c3cc(F)ccc32)n1` (stereo not shown) [CBK075475] it is 110%; for `CN1CCN(C(=O)CNS(=O)(=O)c2ccc(Br)cc2)CC1` [CBK034478] it is 101%.
Consider `CC(C)(C)c1ccc(-c2cnc3nc(O)ccc3c2)cc1` [CBK081284], for which, for the setting “% viability”, the viability at 28.5 h, 10 µM amounted to 74.6%.
Still for that read-out and setting: the value for `Cc1cccc(C)c1N1CCN(CCn2c(=S)[nH]c3ccccc3c2=O)CC1` [CBK267998] was 89.9%; that for `COC(=O)[C@H]1CN(C(=O)c2cccs2)C[C@@H]1c1ccc(F)cc1` [CBK283732] was 92%.
Consider `Cc1ccc(-c2ccccc2CC2(C(=O)Nc3ccc(C(N)=O)cc3)CCOCC2)c(C)c1` [CBK286422], for which, for the setting “% viability”, the viability at 28.5 h, 10 µM is 95.9%.
On the same count and under the same terms, the value for `COc1ccc(CCN2CCC(Oc3nccnc3OCCN3C(=O)CCC3=O)CC2)cc1OC` [CBK084359] was 109%; that for `COc1cc(Cl)c(C)cc1NC(=O)c1ncn(-c2ccccc2)n1` [CBK269456] was 101%.
The same measure, in the same setting: the figure for `CC(C)N1C(=O)C2(CC(=O)N(CCCN3C(=O)c4ccccc4C3=O)C2=O)c2cc(F)ccc21` (stereo not shown) [CBK075969] is 99%; for `CCOC(=O)C1(C2CCCCC2)CCN(C(=O)c2ccc(S(N)(=O)=O)cc2)CC1` [CBK137105] it is 93.2%; for `O=C1CSC2(CCCCC2)N1Nc1ccccc1` [CBK020047] it is 101%.
With `CCc1ccc(-c2csc(NC(=O)CN3C(=O)CCC3=O)n2)cc1` [CBK287347], the viability at 28.5 h, 10 µM (% viability) turned out to be 90.3%.
As for `O=C(CN1CCC(NC(=O)c2ccccc2)CC1)Nc1ccccc1` [CBK074716], the viability at 28.5 h, 10 µM (% viability) was determined as 96.7%.
In the case of `N#Cc1ccc(C(=O)NCC2(N3CCOCC3)CCSC2)cc1` (stereo not shown) [CBK305602], the viability at 28.5 h, 10 µM (% viability) is 95.3%.
The same measure, in the same setting: the value for `COc1ccc(-c2nccnc2NCC2CC2)cc1` [CBK038048] was 95.7%.
On to `Cc1ccc(S(N)(=O)=O)cc1NC(=O)Cc1ccccc1` [CBK024413], for which the viability at 28.5 h, 10 µM (% viability) was found to be 86.7%.
As for `CCOC(=O)C1CCCN(C(=O)Cn2ccc3sccc3c2=O)C1` (stereo not shown) [CBK304099], the viability at 28.5 h, 10 µM (% viability) was 100%.
As for `COc1ccc(NC(=O)CSc2cnn[nH]2)cc1OC` [CBK270010], under “% viability”, the viability at 28.5 h, 10 µM amounted to 102%.
